Patent US9851354B2, “Methods of treating fragile X syndrome and related disorders” (Alcobra Ltd., priority 2013, dated 2017)
“Also recorded” adds a separate entry of the source.

Columns and labels:
[1] = system: Fmr1 knockout (KO) or Wild Type (WT) mice; assay: Y-maze spontaneous alternation; assay type: in vivo, mouse; settings: 2 months old, 150 mg/kg once daily 7 days, Study 1
Method: (§1) Fmr1 knockout mice (KO2) mice (The Dutch-Belgium Fragile X Consortium, 1994), initially obtained from the Jackson Laboratory, and wild type (WT) littermates were generated on a C57BL/6J background and repeatedly backcrossed onto a C57BL/6J background for more than eight generations. The Fmr1 knockout mice were housed in groups of the same genotype in a temperature and humidity controlled room with a 12-h light-dark cycle (lights on from 7 am to 7 pm; testing was conducted during light phase). Room temperature and humidity were recorded continuously in the holding room while food and water were available ad libitum. Testing was conducted on healthy Fmr1 knockout mice and their wild type littermates (N=10 mice per treatment group) at 2 or 6 months of age during the behavioral experiments. Mice were housed in commercial plastic cages and experiments were conducted in line with the requirements of the UK Animals (Scientific Procedures) Act, 1986. All experiments were conducted with experimenters blind to genotype and drug treatment. Animals were allowed a minimum acclimatization period of one week prior to performing any experiment. No prophylactic or therapeutic treatment was administered during the acclimatization period.
(§2) In all cases, saline was used as a vehicle (control).
Two tasks were implemented. The first was an unlearned assessment of spontaneous alternation between arm entries. […]

[2] = system: Fmr1 knockout (KO) or Wild Type (WT) mice; assay: Y-maze water maze left right discrimination; assay type: in vivo, mouse; settings: 2 months old, 150 mg/kg once daily 7 days, Study 1
Method: as §1, §2
A clear Perspex Y-maze was filled with 2 cm of water at 20° C. […]

[3] = system: Fmr1 knockout (KO) or Wild Type (WT) mice; assay: T-maze rewarded alternation task; assay type: in vivo, mouse; settings: 2 months old, 150 mg/kg once daily 7 days, Study 1
Method: as §1, §2
An elevated or enclosed apparatus in the form of a T (placed horizontally) was used. […]

ERK = assay: Brain phosphorylation of ERK (western blot); assay type: in vivo, mouse
Method: as §2
(§3) The Ras-Mek-ERK and PI3K-Akt-mToR signaling pathways are involved in mediating activity dependent alterations in gene transcription underlying changes in synaptic plasticity (Klann and Dever, 2004). Phosphorylated ERK and Akt protein expression was measured by western blot analysis as previously described by Lopez Verrilli (Lopez Verrilli et al., 2009). The antibodies employed were anti-phosphospecific antibodies against Akt (1/1000) and kinase (ERK) 1/2 (1/2000) (Cell Signaling Technology, Danvers, Mass., USA). The antibody against phospho-ERK detects phosphorylation at phospho-ERK 1/2 (Thr202/Tyr204) whereas the antibody against phospho-Akt detects phosphorylation at phospho-Akt (Thr308). Total Akt and ERK 1/2 protein content and phosphorylated ERK and Akt were evaluated by blotting membranes with antiphospho-Akt (1/1000) and antiphospho-ERK antibodies (1/2000) (Cell Signaling Technology, Danvers, Mass., USA). Akt or ERK phosphorylation was normalized to protein content in the same sample and expressed as % of change with respect to basal conditions, considering basal levels as 100%. Protein loading was evaluated by stripping and re-blotting membranes with j-actin antibody (1/1000) (Sigma-Aldrich, St. Louis, Mo., USA). Phosphorylated ERK and Akt protein expression in blood lymphocytes was measured by flow cytometry. For lymphocyte biomarker determinations, a FACStar plus (Becton Dickinson) was used with the excitation laser tuned at 488 nm and green fluorescence from FITC (GST) was collected through a 515-545 nm bandpass filter. The mean FITC fluorescence Intensity was calculated in relation to the fluorescence of reference cells. The mean cellular fluorescence intensity (MFI) is directly proportional to the mean number of Ab molecules bound per cell.

Akt = assay: Lymphocyte pAkt (flow cytometry); assay type: in vivo, mouse; settings: Fmr1 KO mice, 2 months old
Method: as §2, §3

[4] = system: primary hippocampal neurons from Fmr1 knockout mice; assay: Dendritic filopodia density and maturation in vitro; assay type: cell-based, mouse; settings: neurons from Fmr1 KO mice, 300 μM, five hours
Method: as §2
Hippocampal cell cultures were prepared from wild type and Fmr1 KO fetal mice at embryonic day of gestation 17.5 (E17.5). Mice were killed by cervical dislocation and dissociated hippocampal cells were plated in 15 mm multi well vessels (Falcon Primaria). After 5 d in vitro, green fluorescent protein (GFP) was transfected to facilitate monitoring dendritic spine morphogenesis after drug treatment (Ethell and Yamaguchi, 1999; Ethell et al., 2001, Henkemeyer et al., 2003). Dendritic spines were formed at around 16 days in vitro (DIV).
Filopodia density of GFP transfected neurons was quantified by performing Sholl analyses of stacked Zeiss confocal generated images (40× objective, stack of 20×0.2 μm). With Metamorph software, concentric equally spaced circles (every 20 μm) were drawn around the cell soma of each neuron and subsequently, the amount of filopodia was counted per circle. Averages of counts were compared with unpaired two-tailed Student's T-tests.
Spine maturity of GFP transfected neurons was analyzed with Metamorph software (Molecular Devices, Sunnyvale, Calif.). Two distal dendritic segments of 70 100 μm were chosen per neuron for spine morphometric analysis. For each spine, the length and the width were measured. The length was defined as the distance from the base to the tip of the protrusion; whereas width was defined as the maximum distance perpendicular to the long axis of the spine. Measurements were compared with unpaired two tailed Student's T-tests and ANOVA corrected for multiple comparisons.

[5] = cited from earlier work
[6] = Fmr1 KO mice, 2 months old, 150 mg/kg ip 7 days, Study 2

In the case of `Cc1ncc(CO)c(CO)c1O.O=C1CC[C@@H](C(=O)O)N1` [metadoxine, pyridoxol L,2-pyrrolidon-5 carboxylate], the Y-maze spontaneous alternation [1] is reported as “partial reversal of the deficit”, the “Y-maze water maze spatial discrimination (incorrect arm entries)” value [2] is reported as “deficit was reduced” and the “T-maze rewarded alternation working memory (latency to reach the correct arm)” value [3] is reported as “reversal being partial; also recorded: significant improvement in memory”. For the same compound, the “pERK levels in hippocampus” value (ERK; [6]) was “complete reversal of activation of ERK”, the “pERK levels in pre-frontal cortex” value (ERK; [6]) was “effect in pre-frontal cortex was partial” and the “pERK levels in striatum” value (ERK; [6]) was “complete reversal of activation of ERK”. For the same compound, the “whole brain levels of pERK” value (ERK; Fmr1 KO mice, 6 months old, 150 mg/kg ip once daily 7 days) was “increase was reversed by metadoxine treatment”, the “pERK levels in hippocampus, pre-frontal cortex and striatum” value (ERK; WT mice, 2 months old, 150 mg/kg ip 7 days, Study 2) was “without effect on WT mice” and the “whole brain phosphorylation of ERK” value (ERK; WT mice, 2 months old, 150 mg/kg ip once daily 7 days, Study 1) was “no effect on phosphorylation of ERK in WT mice”. The “whole brain total ERK levels” value (ERK; any mice (KO or WT), 2 months old, 150 mg/kg ip once daily 7 days, Study 1) was “no effect”, the “lymphocyte pAkt” value (Akt; 150 mg/kg ip once daily 7 days) was “normalized overactivated Akt” and the “lymphocyte pAkt” value (Akt; 150 mg/kg oral once daily 7 days) was “normalized overactivated Akt”. For the same compound, the “lymphocyte pAkt” value (Akt; 300 mg/kg oral once daily 7 days) was “normalized overactivated Akt”, the “density of neuronal filopodia” value [4] was “reduced the aberrant increase in density of neuronal filopodia” and the filopodia length [4] was “reversed this increase in filopodia length”. For the same compound, the filopodia width [4] was “reversed the decrease in width”, the mean half life ([5]; human serum, Lu Yuan et al. 2007) was “about 0.8 hour” and the “half-life in human serum” value ([5]; human serum, no appreciable differences between oral and intravenous administration) was 40 to 60 min. The oral bioavailability ([5]; oral) was 60-80%.
